Data published in patent US11339157B1, “4H-pyrrolo[3,2-c]pyridin-4-one derivatives” (Bayer Aktiengesellschaft, priority 2017, dated 2022).
Values joined by “and” are separate entries in the source; they are usually repeats but may differ in a detail not shown here. Identical values can stand only once. Counter-ions that a name gives are not always drawn.

Assays:
[1] = molecular target: EGFR ins SVD (insertion of SVD between D770 and N771) (Homo sapiens, UniProt P00533, INS767SVD); test: Exon 20-Mutant-EGFR(D770_N771insSVD) kinase assay (TR-FRET); format: biochemical; conditions: Table 9; read-out: mutEGFR (D770_N771insSVD) kinase assay IC50
Ba/F3-EGFR-WT cells = test: Proliferation assay in BA/F3 (wild type) cells (Cell Titer-Glo); format: cell-based
Procedure: (§1) Cellular Data Description (WT, insSVD, Ins ASV)
(§2) Plates were incubated at 37° C. for 48 h. Retrovirus was harvested by filtering the media supernatant through a 0.45 μm filter.
(§3) Ba/F3 cells purchased from DSMZ were grown in RPMI+10% FBS+10 ng/mL IL-3 and infected with filtered retroviral supernatant at a 1:2 dilution. Polybrene was added to a concentration of 8 μg/mL, plates were spun for 90 min, and incubated overnight at 37° C. 2 μg/mL puromycin was added to the infected cells 24 h after infection and cells were continually grown in the presence of puromycin and 10 ng/mL IL-3. Following stably expressing Ba/F3 cell lines were generated: Ba/F3-EGFR-WT, Ba/F3-EGFR-insSVD.
(§4) The cells ectopically expressing WT EGFR were plated with 10 ng/mL Millipore Culture grade EGF. The cells ectopically expressing EGFR-insSVD were plated without EGF.
(§5) 100 nL of compound was added to each well using a 100 nL pin head, and plates were incubated at 37° C. for 48 h.
(§6) Cell viability was measured by adding 30 μL of Cell Titer-Glo Luminescent Cell Viability Reagent. Plates were sealed with Perkin Elmer Top-Seal, inverted several times to mix, and immediately centrifuged at 1000 rpm for 2 min. Plates were incubated in low light conditions for 8-10 min and luminescence was measured.

Ba/F3-EGFR-insSVD cells = test: Proliferation assay in BA/F3 (ins SVD) cells (Cell Titer-Glo); format: cell-based
Procedure: as §1, §2, §3, §4, §5, §6

[2] = Mus musculus, BaF3, 48 h, Table 10, plated with 10 ng/mL EGF
[3] = Mus musculus, BaF3, 48 h, Table 10, plated without EGF
[4] = Table 10, plated with 10 ng/mL EGF, 48 h
[5] = Table 10, plated without EGF, 48 h
[6] = Mus musculus, BaF3, Table 10, plated with 10 ng/mL EGF, 48 h
[7] = Mus musculus, BaF3, Table 10, plated without EGF, 48 h

EGFR ins SVD (insertion of SVD between D770 and N771), sequence (P00533 with tags, fused parts or gaps INS767SVD limits assumed): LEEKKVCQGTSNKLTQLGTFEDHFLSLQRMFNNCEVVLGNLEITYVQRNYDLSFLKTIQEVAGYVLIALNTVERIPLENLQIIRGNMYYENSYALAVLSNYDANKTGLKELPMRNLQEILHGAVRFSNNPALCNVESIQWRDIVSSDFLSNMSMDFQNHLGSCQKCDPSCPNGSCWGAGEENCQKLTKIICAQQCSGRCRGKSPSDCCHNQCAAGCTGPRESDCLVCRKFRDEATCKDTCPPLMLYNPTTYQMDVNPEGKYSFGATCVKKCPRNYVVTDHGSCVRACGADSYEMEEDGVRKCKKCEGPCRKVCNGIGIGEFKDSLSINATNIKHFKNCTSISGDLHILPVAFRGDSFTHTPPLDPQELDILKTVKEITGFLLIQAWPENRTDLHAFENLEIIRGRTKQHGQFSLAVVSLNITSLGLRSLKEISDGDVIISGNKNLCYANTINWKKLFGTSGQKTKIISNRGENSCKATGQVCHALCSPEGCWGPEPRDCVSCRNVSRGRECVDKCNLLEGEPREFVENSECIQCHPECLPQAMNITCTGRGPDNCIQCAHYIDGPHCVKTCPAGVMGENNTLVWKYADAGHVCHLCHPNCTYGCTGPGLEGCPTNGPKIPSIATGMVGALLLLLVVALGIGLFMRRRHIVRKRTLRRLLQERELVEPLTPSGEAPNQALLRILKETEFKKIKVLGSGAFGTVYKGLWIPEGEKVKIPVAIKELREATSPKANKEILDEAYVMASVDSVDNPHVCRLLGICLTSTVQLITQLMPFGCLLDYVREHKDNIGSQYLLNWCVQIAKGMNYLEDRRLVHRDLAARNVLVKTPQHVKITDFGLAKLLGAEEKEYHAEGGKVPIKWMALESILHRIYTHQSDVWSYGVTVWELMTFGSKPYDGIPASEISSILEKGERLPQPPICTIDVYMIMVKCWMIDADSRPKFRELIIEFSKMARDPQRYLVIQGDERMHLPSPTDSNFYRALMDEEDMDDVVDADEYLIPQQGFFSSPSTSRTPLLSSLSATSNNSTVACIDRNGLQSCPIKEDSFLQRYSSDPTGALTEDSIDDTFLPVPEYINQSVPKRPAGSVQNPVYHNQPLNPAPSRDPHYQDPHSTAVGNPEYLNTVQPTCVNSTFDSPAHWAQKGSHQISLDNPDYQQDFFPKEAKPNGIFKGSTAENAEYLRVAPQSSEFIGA

Row | SMILES | IC50 [1] | IC50 (Ba/F3-EGFR-WT cells; [2]) | IC50 (Ba/F3-EGFR-insSVD cells; [3]) | IC50 (Ba/F3-EGFR-WT cells; [4]) | IC50 (Ba/F3-EGFR-insSVD cells; [5]) | IC50 (Ba/F3-EGFR-WT cells; [6]) | IC50 (Ba/F3-EGFR-insSVD cells; [7])
1 | COc1c(F)cccc1Nc1c(-c2ccncc2OCC2CCCCN2C)[nH]c2c1C(=O)NCC2 (stereo not drawn) [Example 90, 3-(3-fluoro-2-methoxyanilino)-2-(3-{[1-methylpiperidin-2-yl]methoxy}pyridin-4-yl)-1,5,6,7-tetrahydro-4H-pyrrolo[3,2-c]pyridin-4-one] | 0.69 nM | 2660 nM | 29 nM | – | – | – | –
2 | COc1c(Nc2c(-c3ccncc3OCCN(C)CC(F)(F)F)[nH]c3c2C(=O)NCC3)ccc(F)c1Cl [Example 96, 3-(3-chloro-4-fluoro-2-methoxyanilino)-2-(3-{2-[methyl(2,2,2-trifluoroethyl)amino]ethoxy}pyridin-4-yl)-1,5,6,7-tetrahydro-4H-pyrrolo[3,2-c]pyridin-4-one] | 0.305 nM | 1470 nM | 49.6 nM | – | – | – | –
3 | COC(C)(C)COc1cnccc1-c1[nH]c2c(c1Nc1cccc(F)c1OC(F)F)C(=O)NCC2 [Example 83, 3-[2-(difluoromethoxy)-3-fluoroanilino]-2-[3-(2-methoxy-2-methylpropoxy)pyridin-4-yl]-1,5,6,7-tetrahydro-4H-pyrrolo[3,2-c]pyridin-4-one-hydrogen chloride (1/1) Salt] | 0.167 nM | – | – | 2290 nM | 100 nM | – | –
4 | COc1c(Cl)cccc1Nc1c(-c2ccncc2OCCOC(C)(C)C)[nH]c2c1C(=O)NCC2 [Example 87, 2-[3-(2-tert-butoxyethoxy)pyridin-4-yl]-3-(3-chloro-2-methoxyanilino)-1,5,6,7-tetrahydro-4H-pyrrolo[3,2-c]pyridin-4-one] | 0.204 nM | 1060 nM | 34.4 nM | – | – | – | –
5 | COC(C)(C)COc1cnccc1-c1[nH]c2c(c1Nc1cc(F)ccc1C)C(=O)NCC2 [Example 45, 3-(5-fluoro-2-methylanilino)-2-[3-(2-methoxy-2-methylpropoxy)pyridin-4-yl]-1,5,6,7-tetrahydro-4H-pyrrolo[3,2-c]pyridin-4-one] | 0.319 nM | 2490 nM | 255 nM | – | – | – | –
6 | CCc1c(F)cccc1Nc1c(-c2ccncc2OCC(C)(C)OC)[nH]c2c1C(=O)NCC2 [Example 35, 3-(2-ethyl-3-fluoroanilino)-2-[3-(2-methoxy-2-methylpropoxy)pyridin-4-yl]-1,5,6,7-tetrahydro-4H-pyrrolo[3,2-c]pyridin-4-one] | 0.185 nM | 428 nM | 7.98 nM | – | – | – | –
7 | COc1c(F)cccc1Nc1c(-c2ccncc2OCCN2CCOCC2)[nH]c2c1C(=O)NCC2 [Example 84, 3-(3-fluoro-2-methoxyanilino)-2-{3-[2-(morpholin-4-yl)ethoxy]pyridin-4-yl}-1,5,6,7-tetrahydro-4H-pyrrolo[3,2-c]pyridin-4-one] | 0.223 nM | – | – | – | – | 2210 nM | 188 nM
8 | CN(C)CCOc1cnccc1-c1[nH]c2c(c1Nc1cccc(F)c1OC(F)F)C(=O)NCC2 [Example 64, 3-[2-(difluoromethoxy)-3-fluoroanilino]-2-{3-[2-(dimethylamino)ethoxy]pyridin-4-yl}-1,5,6,7-tetrahydro-4H-pyrrolo[3,2-c]pyridin-4-one] | 0.443 nM | 1890 nM | 121 nM | – | – | – | –
9 | COCCOc1cnccc1-c1[nH]c2c(c1Nc1ccccc1C(F)(F)F)C(=O)NCC2 [Example 47, 2-[3-(2-methoxyethoxy)pyridin-4-yl]-3-[2-(trifluoromethyl)anilino]-1,5,6,7-tetrahydro-4H-pyrrolo[3,2-c]pyridin-4-one] | 0.169 nM | 3240 nM | 448 nM | – | – | – | –
10 | COc1c(Cl)cccc1Nc1c(-c2ccncc2OCC(C)(C)OC)[nH]c2c1C(=O)NCC2 [Example 33, 3-(3-chloro-2-methoxyanilino)-2-[3-(2-methoxy-2-methylpropoxy)pyridin-4-yl]-1,5,6,7-tetrahydro-4H-pyrrolo[3,2-c]pyridin-4-one] | 0.225 nM and 0.334 nM and 0.166 nM and 0.161 nM and 0.275 nM and < 0.0725 nM | 476 nM | 9.32 nM | – | – | – | –
11 | COc1c(F)cccc1Nc1c(-c2ccncc2OCCOC(C)(C)C)[nH]c2c1C(=O)NCC2 [Example 91, 2-[3-(2-tert-butoxyethoxy)pyridin-4-yl]-3-(3-fluoro-2-methoxyanilino)-1,5,6,7-tetrahydro-4H-pyrrolo[3,2-c]pyridin-4-one] | 0.135 nM | 1100 nM | 35.7 nM | – | – | – | –
12 | COC(C)(C)COc1cnccc1-c1[nH]c2c(c1Nc1cccc(Cl)c1OC(F)F)C(=O)NCC2 [Example 38, 3-[3-chloro-2-(difluoromethoxy)anilino]-2-[3-(2-methoxy-2-methylpropoxy)pyridin-4-yl]-1,5,6,7-tetrahydro-4H-pyrrolo[3,2-c]pyridin-4-one] | 0.13 nM | 466 nM | 17.5 nM | – | – | – | –
13 | COc1c(F)cccc1Nc1c(-c2ccncc2OCC2CCCO2)[nH]c2c1C(=O)NCC2 (single isomer, unassigned; enantiomer 2) [Example 89, 3-(3-fluoro-2-methoxyanilino)-2-{3-[(oxolan-2-yl)methoxy]pyridin-4-yl}-1,5,6,7-tetrahydro-4H-pyrrolo[3,2-c]pyridin-4-one (enantiomer 2)] | 0.108 nM | – | – | 252 nM | 12.8 nM | – | –
14 | COc1c(Cl)cccc1Nc1c(-c2ccncc2OCC2CCCCO2)[nH]c2c1C(=O)NCC2 (stereo not drawn) [Example 68] | 0.115 nM | 109 nM | 2.94 nM | – | – | – | –
15 | Cc1c(F)cc(F)cc1Nc1c(-c2ccncc2OC[C@@H]2CCCN2C)[nH]c2c1C(=O)NCC2 [Example 51, 3-(3,5-difluoro-2-methylanilino)-2-(3-{[(2S)-1-methylpyrrolidin-2-yl]methoxy}pyridin-4-yl)-1,5,6,7-tetrahydro-4H-pyrrolo[3,2-c]pyridin-4-one] | 0.732 nM | – | – | – | – | 3290 nM | 107 nM
16 | O=C1NCCc2[nH]c(-c3ccncc3OCCN3CCOCC3)c(Nc3cccc(Cl)c3OC(F)F)c21 [Example 81, 3-[3-chloro-2-(difluoromethoxy)anilino]-2-{3-[2-(morpholin-4-yl)ethoxy]pyridin-4-yl}-1,5,6,7-tetrahydro-4H-pyrrolo[3,2-c]pyridin-4-one] | 0.441 nM | – | – | – | – | 4190 nM | 405 nM
17 | COC(C)(C)COc1cnccc1-c1[nH]c2c(c1Nc1cccc(Cl)c1Br)C(=O)NCC2 [Example 78, 3-(2-bromo-3-chloroanilino)-2-[3-(2-methoxy-2-methylpropoxy)pyridin-4-yl]-1,5,6,7-tetrahydro-4H-pyrrolo[3,2-c]pyridin-4-one] | < 0.0725 nM and 0.0736 nM | 583 nM | 16 nM | – | – | – | –
18 | COc1c(F)cccc1Nc1c(-c2ccncc2OCC(C)(C)N2CCOCC2)[nH]c2c1C(=O)NCC2 [Example 75, 3-(3-fluoro-2-methoxyanilino)-2-{3-[2-methyl-2-(morpholin-4-yl)propoxy]pyridin-4-yl}-1,5,6,7-tetrahydro-4H-pyrrolo[3,2-c]pyridin-4-one] | 0.903 nM | – | – | – | – | 2360 nM | 98 nM
19 | COc1c(F)cccc1Nc1c(-c2ccncc2OC(C)Cc2ccccc2)[nH]c2c1C(=O)NCC2 (stereo not drawn) [Example 93, 3-(3-fluoro-2-methoxyanilino)-2-{3-[(1-phenylpropan-2-yl)oxy]pyridin-4-yl}-1,5,6,7-tetrahydro-4H-pyrrolo[3,2-c]pyridin-4-one] | 0.277 nM | 3680 nM | 468 nM | – | – | – | –
20 | Cc1c(F)cccc1Nc1c(-c2ccncc2OCCN(C)C)[nH]c2c1C(=O)NCC2 [Example 56, 2-{3-[2-(dimethylamino)ethoxy]pyridin-4-yl}-3-(3-fluoro-2-methylanilino)-1,5,6,7-tetrahydro-4H-pyrrolo[3,2-c]pyridin-4-one] | 0.562 nM | 1900 nM | 242 nM | – | – | – | –
21 | CC(C)(O)COc1cnccc1-c1[nH]c2c(c1Nc1cccc(F)c1OC(F)F)C(=O)NCC2 [Example 73, 3-[2-(difluoromethoxy)-3-fluoroanilino]-2-[3-(2-hydroxy-2-methylpropoxy)pyridin-4-yl]-1,5,6,7-tetrahydro-4H-pyrrolo[3,2-c]pyridin-4-one] | 0.167 nM | 2520 nM | 416 nM | – | – | – | –
22 | O=C1NCCc2[nH]c(-c3ccncc3OCC3CCCCO3)c(Nc3cccc(Cl)c3Cl)c21 (stereo not drawn) [Example 69, 3-(2,3-dichloroanilino)-2-{3-[(oxan-2-yl)methoxy]pyridin-4-yl}-1,5,6,7-tetrahydro-4H-pyrrolo[3,2-c]pyridin-4-one] | 0.106 nM | 290 nM | 12.4 nM | – | – | – | –
23 | COc1c(Cl)cccc1Nc1c(-c2ccncc2OCCN(C)C)[nH]c2c1C(=O)NCC2 [Example 54, 3-(3-chloro-2-methoxyanilino)-2-{3-[2-(dimethylamino)ethoxy]pyridin-4-yl}-1,5,6,7-tetrahydro-4H-pyrrolo[3,2-c]pyridin-4-one] | 0.912 nM | 1300 nM | 37.5 nM | – | – | – | –
